Values quoted from earlier work, collected in article PMC8453963 (Chemmedchem, 2021).
Marks after values point to notes of the source that are not given here.

Settings: ref [53]

In the case of `O=C([O-])CN(CCN(CC(=O)[O-])Cc1cc(CCC(=O)NCCCCCC(=O)NCCCC[C@H](NC(=O)N[C@@H](CCC(=O)O)C(=O)O)C(=O)O)ccc1[O-])Cc1cc(CCC(=O)O)ccc1[O-].[68Ga+3].[OH3+]` [[^68Ga]Ga‐PSMA‐11], the “log D oct/PBS” value is given as −2.91^[a].
